Residues, ends and D or L forms follow the SMILES beside them.
Key:
[1] = Solubility in cola syrup preparation; format: physicochemical; details: cola syrup for 1-plus-5 throw
Procedure: Samples of finished ready-to-drink cola beverage were prepared for each of three different formulations. The formulations were identical except that syrup variant 1 used rebaudioside A as the sweetener, syrup variant 2 used rebaudioside D as the sweetener, and syrup variant 3 used rebaudioside M as the sweetener in accordance with one aspect of the invention of the present disclosure. For the ready-to-drink cola beverage samples of formulation variant 1 and formulation variant 3, 2.0 liters of syrup were prepared suitable for use in a 1-plus-5 throw with carbonated water to make the corresponding ready-to-drink cola beverage samples. To prepare variant 1 (comprising rebaudioside A as the sweetener) and variant 3 (comprising rebaudioside M as the sweetener), the ingredients listed in Table 4, below, were added (in the sequence listed) to approximately 1.0-1.5 liter purified water with stirring. Purified water was then added until the syrup was 2 liters in volume. Then 50 mL portions of the syrup were added respectively to 250 mL portions of carbonated water, i.e., a “1-plus-5 throw” to obtain samples of finished ready-to-drink cola beverage corresponding to each of the two syrup variants. […] Specifically, the unsweetened cola beverage samples were made first in sample bottles. Then, to each bottle 400 ppm of Reb D was carefully added in. […]

[2] = system: 14 expertly trained panelists; assay: Sensory studies of sweetness with acidified water samples; format: in vivo, human; details: for Sweetness (score): acidified water, Aspartame 400 ppm, scale 0 to 15, 15 being the sweetest
Procedure: Sensory studies with two sets of acidified water samples were performed and are described below, where Set 1: HFCS-55 11.7%; Aspartame 400 ppm, and rebaudioside M 400 ppm; and Set 2: Aspartame 400 ppm, Rebaudioside M 400 ppm and Rebaudioside D 400 ppm. The sensory studies were conducted by 14 expertly trained panelists with two evaluations performed for each set. The scale for scoring was 0 to 15, with 15 being the sweetest. The letters shown in Table 2 and Table 3, along with the numerical sweetness values will be understood by those skilled in the art to designate whether or not a statistically significant difference in taste was found. Thus, it can be seen in Table 1 that for Set 1 a statistically significant difference was found between the three sweeteners. It can be seen in Table 2 that for Set 2 a statistically significant difference in sweetness was found for rebaudioside M versus the other two sweeteners. More generally, it can be seen that for both Set 1 and Set 2, rebaudioside M had noticeably higher sweetness values.

[3] = Taste comparison of rebaudioside M with other potent sweeteners in beverages; format: in vivo
[4] = Differential scanning calorimetry (FIG. 4); format: physicochemical; details: second DSC run showing little change
Excerpt: FIG. 4 is a differential scanning calorimetry graph for rebaudioside M.

[5] = Table 2, Rebaudioside D 400 ppm, Rebaudioside M 400 ppm
[6] = Table 3, HFCS-55 11.7%, rebaudioside M 400 ppm

| SMILES | Solubility [1] | Sweetness (score) [2, 5] | Sweetness (score) [2, 6] | Sweetness intensity relative to Reb A ([3]; in vivo) | Bitterness relative to the same concentration of rebaudioside A ([3]; otherwise identical acidic aqueous carbonated beverages) | Thermo-stability [4] | Sweetness relative to other sweeteners ([2]; conclusion from Table 2 and Table 3, 400 ppm in acidified water) |
| --- | --- | --- | --- | --- | --- | --- | --- |
| C=C1C[C@@]23CC[C@H]4[C@@](C)(CCC[C@@]4(C)C(=O)O[C@@H]4O[C@H](CO)[C@@H](O)[C@H](O)[C@H]4O[C@@H]4O[C@H](CO)[C@@H](O)[C@H](O)[C@H]4O)[C@@H]2CC[C@]1(O[C@@H]1O[C@H](CO)[C@@H](O)[C@H](O[C@@H]2O[C@H](CO)[C@@H](O)[C@H](O)[C@H]2O)[C@H]1O[C@@H]1O[C@H](CO)[C@@H](O)[C@H](O)[C@H]1O)C3 [Rebaudioside D, rebaudioside D, reference compound] | poor solubility | 6.97 | – | – | – | – | – |
| COC(=O)[C@H](Cc1ccccc1)NC(=O)[C@@H](N)CC(=O)O [Aspartame, reference compound] (H-Asp-Phe-OMe) | – | 6.39 | 6.30 | – | – | – | – |
| C=C1C[C@@]23CC[C@H]4[C@@](C)(CCC[C@@]4(C)C(=O)O[C@@H]4O[C@H](CO)[C@@H](O)[C@H](O[C@@H]5O[C@H](CO)[C@@H](O)[C@H](O)[C@H]5O)[C@H]4O[C@@H]4O[C@H](CO)[C@@H](O)[C@H](O)[C@H]4O)[C@@H]2CC[C@]1(O[C@@H]1O[C@H](CO)[C@@H](O)[C@H](O[C@@H]2O[C@H](CO)[C@@H](O)[C@H](O)[C@H]2O)[C@H]1O[C@@H]1O[C@H](CO)[C@@H](O)[C@H](O)[C@H]1O)C3 [Rebaudioside M, rebaudioside M] | – | 7.58 | 8.00 | significantly higher than Reb A | significantly lower bitterness | good thermo-stability | significantly sweeter than aspartame and rebaudioside D |

— patent US20140342043A1, “Rebaudioside Sweetener Compositions and Food Products Sweetened with Same” (PepsiCo, Inc., priority 2013, published 2014)
